Reference: patent US20260262643A1, “HERBICIDAL BENZOXAZINES” (FMC CORPORATION, priority 2022, published 2026)

Key:
barnyardgrass [1] = experiment: Test C preemergence; format: in vivo, Echinochloa crusgalli; details: 0 to 100 scale (0 no effect, 100 complete control)
Summary of the method: (§1)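 Soil-applied (pre) and foliar (post, 1–2 leaf, 2–10 cm) sprays; surfactant-containing non-phytotoxic solvent vehicle; loam/sand substrate. Readout: visual % control at 10 d, greenhouse, versus untreated.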

galium = experiment: Test C postemergence; format: in vivo, Galium aparine; details: 10 days
Summary of the method: as §1

oat, wild [2] = experiment: Test C preemergence; format: in vivo, Avena fatua; details: 0 to 100 scale (0 no effect, 100 complete control)
Summary of the method: as §1

ryegrass, Italian [3] = experiment: Test C postemergence; format: in vivo, Lolium multiflorum; details: 10 days
Summary of the method: as §1

horseweed = experiment: Test C postemergence; format: in vivo, Erigeron canadensis; details: 10 days
Summary of the method: as §1

kochia [4] = experiment: Test C postemergence; format: in vivo, Bassia scoparia; details: 10 days
Summary of the method: as §1

kochia [5] = experiment: Test C preemergence; format: in vivo, Bassia scoparia; details: 0 to 100 scale (0 no effect, 100 complete control)
Summary of the method: as §1

soybean [6] = experiment: Test C postemergence; format: in vivo, Glycine max; details: 10 days
Summary of the method: as §1

barnyardgrass [7] = experiment: Test C postemergence; format: in vivo, Echinochloa crusgalli; details: 10 days
Summary of the method: as §1

ryegrass, Italian [8] = experiment: Test C preemergence; format: in vivo, Lolium multiflorum; details: 0 to 100 scale (0 no effect, 100 complete control)
Summary of the method: as §1

green foxtail [9] = experiment: Test C preemergence; format: in vivo, Setaria viridis; details: 0 to 100 scale (0 no effect, 100 complete control)
Summary of the method: as §1

ragweed [10] = experiment: Test C postemergence; format: in vivo, Ambrosia artemisiifolia; details: 10 days
Summary of the method: as §1

ducksalad = experiment: Test D flooded paddy test; format: in vivo, Heteranthera limosa; details: 250 g ai/ha, applied to paddy water, visual rating after 13 to 14 days, scale 0 to 100 (0 no effect, 100 complete control)
Summary of the method: (§2)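 Rating scale 0–100 (0 no effect, 100 complete control), visual, versus controls. Readout at 13–14 days after in-water application to 2-leaf plants in pots flooded 3 cm deep.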

soybean [11] = experiment: Test C preemergence; format: in vivo, Glycine max; details: 0 to 100 scale (0 no effect, 100 complete control)
Summary of the method: as §1

oat, wild [12] = experiment: Test C postemergence; format: in vivo, Avena fatua; details: 10 days
Summary of the method: as §1

pigweed, palmer [13] = experiment: Test C preemergence; format: in vivo, Amaranthus palmeri; details: 0 to 100 scale (0 no effect, 100 complete control)
Summary of the method: as §1

corn [14] = experiment: Test C preemergence; format: in vivo, Zea mays; details: 0 to 100 scale (0 no effect, 100 complete control)
Summary of the method: as §1

barnyardgrass [15] = experiment: Test D flooded paddy test; format: in vivo, Echinochloa crus-galli; details: 250 g ai/ha, applied to paddy water, visual rating after 13 to 14 days, scale 0 to 100 (0 no effect, 100 complete control)
Summary of the method: as §2

green foxtail [16] = experiment: Test C postemergence; format: in vivo, Setaria viridis; details: 10 days
Summary of the method: as §1

ragweed [17] = experiment: Test C preemergence; format: in vivo, Ambrosia artemisiifolia; details: 0 to 100 scale (0 no effect, 100 complete control)
Summary of the method: as §1

sedge, umbrella = experiment: Test D flooded paddy test; format: in vivo, Cyperus difformis; details: 250 g ai/ha, applied to paddy water, visual rating after 13 to 14 days, scale 0 to 100 (0 no effect, 100 complete control)
Summary of the method: as §2

wheat [18] = experiment: Test C postemergence; format: in vivo, Triticum aestivum; details: 10 days
Summary of the method: as §1

blackgrass [19] = experiment: Test C postemergence; format: in vivo, Alopecurus myosuroides; details: Alopecurus myosuroides, post-emergence, 240 h, 10 days, read-out: Plant response rating, Blackgrass
Summary of the method: as §1

pigweed, palmer [20] = experiment: Test C postemergence; format: in vivo, Amaranthus palmeri; details: 10 days
Summary of the method: as §1

blackgrass [21] = experiment: Test C preemergence; format: in vivo, Alopecurus myosuroides; details: 0 to 100 scale (0 no effect, 100 complete control)
Summary of the method: as §1

corn [22] = experiment: Test C postemergence; format: in vivo, Zea mays; details: Zea mays, post-emergence, 240 h, 10 days
Summary of the method: as §1

wheat [23] = experiment: Test C preemergence; format: in vivo, Triticum aestivum; details: 0 to 100 scale (0 no effect, 100 complete control)
Summary of the method: as §1

rice = experiment: Test D flooded paddy test; format: in vivo, Oryza sativa; details: 250 g ai/ha, applied to paddy water, visual rating after 13 to 14 days, scale 0 to 100 (0 no effect, 100 complete control)
Summary of the method: as §2

[24] = Preemergence, 500 g ai/ha, visual rating after 10 days
[25] = Test C, preemergence, 125 g ai/ha
[26] = 125 g ai/ha, postemergence, 0 to 100 scale, 0 no effect, 100 complete control
[27] = Postemergence, 500 g ai/ha, visual 0 to 100 scale (0 no effect, 100 complete control)
[28] = 125 g ai/ha, postemergence, 0 to 100 scale (0 no effect, 100 complete control)

For CC(C)c1ncn(-c2cc3c(c(C(=O)N4C[C@H](C)Oc5c(Cl)cccc54)c2)OCO3)n1 [Compound 258, [(2S)-8-chloro-2-methyl-2,3-dihydro-1,4-benzoxazin-4-yl]-[6-(3-isopropyl-1,2,4-triazol-1-yl)-1,3-benzodioxol-4-yl]methanone], the “Plant response rating, Barnyardgrass” value (barnyardgrass [1]; [24]) was 100, the “Barnyardgrass plant response rating” value (barnyardgrass [1]; [25]) was 80 and the “Plant response rating, Galium” value (galium; [26]) was 100. For the same compound, the “Plant response rating, Galium” value (galium; [27]) was 100, the “Plant response rating, Oat, Wild” value (oat, wild [2]; [24]) was 90 and the “Oat, Wild plant response rating” value (oat, wild [2]; [25]) was 40. For the same compound, the “Plant response rating, Ryegrass, Italian” value (ryegrass, Italian [3]; [26]) was 50, the “Plant response rating, Ryegrass, Italian” value (ryegrass, Italian [3]; [27]) was 80 and the “Plant response rating, Horseweed” value (horseweed; [26]) was 70. For the same compound, the “Plant response rating, Horseweed” value (horseweed; [27]) was 90, the “Plant response rating, Kochia” value (kochia [4]; [26]) was 70 and the “Plant response rating, Kochia” value (kochia [4]; [27]) was 100. For the same compound, the “Plant response rating, Kochia” value (kochia [5]; [24]) was 100, the “Kochia plant response rating” value (kochia [5]; [25]) was 90 and the “Plant response rating, Soybean” value (soybean [6]; [26]) was 100. For the same compound, the “Plant response rating, Soybean” value (soybean [6]; [27]) was 100, the “Plant response rating, Barnyardgrass” value (barnyardgrass [7]; [26]) was 40 and the “Plant response rating, Barnyardgrass” value (barnyardgrass [7]; [27]) was 90. The “Plant response rating, Ryegrass, Italian” value (ryegrass, Italian [8]; [24]) was 100, the “Ryegrass, Italian plant response rating” value (ryegrass, Italian [8]; [25]) was 90 and the “Plant response rating, Foxtail, Green” value (green foxtail [9]; [24]) was 100. For the same compound, the “Foxtail, Green plant response rating” value (green foxtail [9]; [25]) was 100, the “Plant response rating, Ragweed” value (ragweed [10]; [26]) was 70 and the “Plant response rating, Ragweed” value (ragweed [10]; [27]) was 90. The “Plant response rating, Ducksalad (Flood)” value (ducksalad) was 98, the “Plant response rating, Soybean” value (soybean [11]; [24]) was 100 and the “Soybean plant response rating” value (soybean [11]; [25]) was 50. The “Plant response rating, Oat, Wild” value (oat, wild [12]; [26]) was 30, the “Plant response rating, Oat, Wild” value (oat, wild [12]; [27]) was 90 and the “Plant response rating, Pigweed, Palmer” value (pigweed, palmer [13]; [24]) was 100. The “Pigweed, Palmer plant response rating” value (pigweed, palmer [13]; [25]) was 100, the “Plant response rating, Corn” value (corn [14]; [24]) was 20 and the “Corn plant response rating” value (corn [14]; [25]) was 10. The “Plant response rating, Barnyardgrass (Flood)” value (barnyardgrass [15]) was 35, the “Plant response rating, Foxtail, Green” value (green foxtail [16]; [26]) was 50 and the “Plant response rating, Foxtail, Green” value (green foxtail [16]; [27]) was 90. The “Plant response rating, Ragweed” value (ragweed [17]; [24]) was 50, the “Ragweed plant response rating” value (ragweed [17]; [25]) was 40 and the “Plant response rating, Sedge, Umbrella (Flood)” value (sedge, umbrella) was 98. The “Plant response rating, Wheat” value (wheat [18]; [26]) was 20, the “Plant response rating, Wheat” value (wheat [18]; [27]) was 50 and the pest or weed control at 125 g/ha (blackgrass [19]; [28]) was 50%. For the same compound, the pest or weed control at 500 g/ha (blackgrass [19]; [27]) was 100%, the “Plant response rating, Pigweed, Palmer” value (pigweed, palmer [20]; [26]) was 100 and the “Plant response rating, Pigweed, Palmer” value (pigweed, palmer [20]; [27]) was 100. The “Plant response rating, Blackgrass” value (blackgrass [21]; [24]) was 60, the “Blackgrass plant response rating” value (blackgrass [21]; [25]) was 40 and the Corn plant response rating (crop injury, 0 = no effect, 100 = complete kill) at 125 g/ha (corn [22]; [28]) was 70%. The Corn plant response rating (crop injury, 0 = no effect, 100 = complete kill) at 500 g/ha (corn [22]; [27]) was 80%, the “Plant response rating, Wheat” value (wheat [23]; [24]) was 60 and the “Wheat plant response rating” value (wheat [23]; [25]) was 50. For the same compound, the “Plant response rating, Rice (Flood)” value (rice) was 10.
